From patent US20240239775A1, “FXR REGULATOR, PREPARATION METHOD THEREFOR, PHARMACEUTICAL COMPOSITION THEREOF AND USE THEREOF” (QINGDAO RUIJI MEDICAL TECHNOLOGY CO., LTD., priority 2021, published 2024) come the findings set out here.

One may read the IC50 as the concentration that inhibits the measured activity by half. The low end stands for higher potency, the high end for lower potency.

The target of the first assay is T1, FXR (Homo sapiens, UniProt Q96RI1).
T1 construct: 5 μL of 20 nM FXR-LBD Complete Coregulator buffer G; purchased ThermoFisher PV4833
T1 sequence (Q96RI1 262-486 limits assumed): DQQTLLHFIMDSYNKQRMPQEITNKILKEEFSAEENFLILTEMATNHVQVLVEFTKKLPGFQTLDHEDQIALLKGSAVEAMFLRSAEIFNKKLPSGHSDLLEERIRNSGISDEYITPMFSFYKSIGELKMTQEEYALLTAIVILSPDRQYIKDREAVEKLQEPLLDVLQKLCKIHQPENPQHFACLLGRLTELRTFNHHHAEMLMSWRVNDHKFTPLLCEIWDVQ
As to the kind of experiment: FXR antagonist screening by TR-FRET (LanthaScreen TR-FRET FXR co-activation assay kit). To be noted: Table 1.1, FXR antagonistic activity; TR-FRET with CDCA; geometric means of at least two independent runs. The assay is classed as biochemical. In outline: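 FXR-LBD (20 nM working solution) mixed with compound, CDCA (200 μM working solution) as agonist, Fluorescein-SRC2-2 and Tb-anti-GST antibody in Coregulator buffer G; 10 h at room temperature. Coactivator recruitment read by TR-FRET, triplicate wells.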
In the case of `CCOC(=O)c1oc2ccc(S(=O)(=O)N(CCc3ccccc3)Cc3ccccc3N3CCNCC3)cc2c1C` [Example M9-2, ethyl 3-methyl-5-(N-phenethyl-N-(2-(piperazin-1-yl)benzyl)sulfamoyl)benzofuran-2-carboxylate], the IC50 is 50 to 100 µM.

Consider `CCOC(=O)c1oc2ccc(S(=O)(=O)N(CCc3ccccc3)c3ccccc3N3CC[N+](C)(C)CC3)cc2c1C` [Example M10-90, 4-(2-((2-(ethoxycarbonyl)-3-methyl-N-phenethylbenzofuran)-5-sulfonylamino)phenyl)-1,1-dimethylpiperazin-1-ium], for which the IC50 was in the range of 50 to 100 µM.

With `CCOC(=O)c1oc2ccc(S(=O)(=O)N(CCc3ccccc3)c3ccccc3N3CCN(C(C)=O)CC3)cc2c1C` [Example M10-91, ethyl 3-methyl-5-(N-(2-(4-acetylpiperazin-1-yl)phenyl)-N-phenethylsulfamoyl)benzofuran-2-carboxylate], the IC50 lay within 50 to 100 µM.

In turn, `CCOC(=O)c1oc2ccc(S(=O)(=O)N(CCc3ccccc3)c3ccccc3N3CCN(S(C)(=O)=O)CC3)cc2c1C` [Example M10-93, ethyl 3-methyl-5-(N-(2-(4-(methylsulfonyl)piperazin-1-yl)phenyl)-N-phenethylsulfamoyl)benzofuran-2-carboxylate] displayed an IC50 of 50 to 100 µM.

Turning to `CCOC(=O)c1oc2ccc(S(=O)(=O)N(CCc3ccccc3)c3ccccc3N3CCN(C(=O)CC(C)(C)C)CC3)cc2c1C` [Example M10-94], the IC50 was in the range of 50 to 100 µM.

Turning to `CCOC(=O)c1oc2ccc(S(=O)(=O)N(CCc3ccccc3)c3ccccc3N3CCN(Cc4ccccc4)CC3)cc2c1C` [Example M10-95], the IC50 lay in the range of 50 to 100 µM.

On to `CCOC(=O)c1oc2ccc(S(=O)(=O)N(CCc3ccccc3)c3ccccc3N3CCN(C(=O)c4ccccc4)CC3)cc2c1C` [Example M10-96], for which the IC50 was in the range of 50 to 100 µM.

`CCOC(=O)c1oc2ccc(S(=O)(=O)N(CCc3ccccc3)Cc3ccccc3N3CCN(C)CC3)cc2c1C` [Example M10-98, ethyl 3-methyl-5-(N-(2-(4-methylpiperazin-1-yl)benzyl)-N-phenethylsulfamoyl)benzofuran-2-carboxylate] registered an IC50 of 50 to 100 µM.

In turn, `CCOC(=O)c1oc2ccc(S(=O)(=O)N(CCc3ccccc3)Cc3ccccc3N3CC[N+](C)(C)CC3)cc2c1C` [Example M10-99, 4-(2-((2-(ethoxycarbonyl)-3-methyl-N-benzylethylbenzofuran)-5-sulfonylamino)phenyl)-1,1-dimethylpiperazin-1-ium] had a concentration for half-maximal inhibition (IC50) of 50 to 100 µM.

In turn, `CCOC(=O)c1oc2ccc(S(=O)(=O)N(CCc3ccccc3)Cc3ccccc3N3CCN(C(C)=O)CC3)cc2c1C` [Example M10-100, ethyl 3-methyl-5-(N-(2-(4-acetylpiperazin-1-yl)benzyl)-N-phenethylsulfamoyl)benzofuran-2-carboxylate] returned an IC50 of 50 to 100 µM.

`CCOC(=O)c1oc2ccc(S(=O)(=O)N(CCc3ccccc3)Cc3ccccc3N3CCN(S(C)(=O)=O)CC3)cc2c1C` [Example M10-102, ethyl 3-methyl-5-(N-(2-(4-methanesulfonylpiperazin-1-yl)benzyl)-N-phenethylsulfamoyl)benzofuran-2-carboxylate]: the IC50 fell in the range of 50 to 100 µM.

Compound `CCOC(=O)c1oc2ccc(S(=O)(=O)N(CCc3ccccc3)Cc3ccccc3N3CCN(C(=O)CC(C)(C)C)CC3)cc2c1C` [Example M10-103, ethyl 3-methyl-5-(N-(2-(4-(3,3-dimethylbutyryl)piperazin-1-yl)benzyl)-N-phenethylsulfamoyl)benzofuran-2-carboxylate] returned an IC50 of 50 to 100 µM.

The compound `CCOC(=O)c1oc2ccc(S(=O)(=O)N(CCc3ccccc3)Cc3ccccc3N3CCN(Cc4ccccc4)CC3)cc2c1C` [Example M10-104, ethyl 3-methyl-5-(N-(2-(4-benzylpiperazin-1-yl)benzyl)-N-phenethylsulfamoyl)benzofuran-2-carboxylate] gave an IC50 of 50 to 100 µM.

Consider `CCOC(=O)c1oc2ccc(S(=O)(=O)N(CCc3ccccc3)Cc3ccccc3N3CCN(C(=O)c4ccccc4)CC3)cc2c1C` [Example M10-105, ethyl 3-methyl-5-(N-(2-(4-benzoylpiperazin-1-yl)benzyl)-N-phenethylsulfamoyl)benzofuran-2-carboxylate], for which the IC50 lay in the range of 50 to 100 µM.

The same assay, now with this note: Table 1.2, FXR antagonistic activity; TR-FRET with CDCA; geometric means of at least two independent runs.
Take `CCOC(=O)c1oc2ccc(S(=O)(=O)N(CCc3ccccc3)c3ccccc3N3CCN(C(=O)c4ccc(C)cc4)CC3)cc2c1C` [Example M10-106, ethyl 3-methyl-5-(N-(2-(4-(4-methylbenzoyl)piperazin-1-yl)phenyl)-N-phenethylsulfamoyl)benzofuran-2-carboxylate]: the IC50 lay within 50 to 100 µM.

`CCOC(=O)c1oc2ccc(S(=O)(=O)N(CCc3ccccc3)c3ccccc3N3CCN(C(=O)c4ccccc4C)CC3)cc2c1C` [Example M10-107, Ethyl 3-methyl-5-(N-(2-(4-(2-methylbenzoyl)piperazin-1-yl)phenyl)-N-phenethylsulfamoyl)benzofuran-2-carboxylate] showed an IC50 of 50 to 100 µM.

`CCOC(=O)c1oc2ccc(S(=O)(=O)N(CCc3ccccc3)c3ccccc3N3CCN(C(=O)c4cccc(C)c4)CC3)cc2c1C` [Example M10-108, ethyl 3-methyl-5-(N-(2-(4-(3-methylbenzoyl)piperazin-1-yl)phenyl)-N-phenethylsulfamoyl)benzofuran-2-carboxylate]: the IC50 lay within 50 to 100 µM.

In the case of `CCOC(=O)c1oc2ccc(S(=O)(=O)N(CCc3ccccc3)c3ccccc3N3CCN(C(=O)c4ccc(NC(C)=O)cc4)CC3)cc2c1C` [Example M10-109, Ethyl 5-(N-(2-(4-(4-Acetylaminobenzoyl)piperazin-1-yl)phenyl)-N-phenethylsulfamoyl)-3-methyl benzofuran-2-carboxylate], the IC50 lay within 50 to 100 µM.

As for `CCOC(=O)c1oc2ccc(S(=O)(=O)N(CCc3ccccc3)c3ccccc3N3CCN(C(=O)c4ccc(C(F)(F)F)cc4)CC3)cc2c1C` [Example M10-110], the IC50 was in the range of 50 to 100 µM.

`CCOC(=O)c1oc2ccc(S(=O)(=O)N(CCc3ccccc3)c3ccccc3N3CCN(C(=O)c4ccc(C#N)cc4)CC3)cc2c1C` [Example M10-111] had an IC50 of 50 to 100 µM.

`CCOC(=O)c1oc2ccc(S(=O)(=O)N(CCc3ccccc3)c3ccccc3N3CCN(C(=O)c4ccc(F)cc4)CC3)cc2c1C` [Example M10-112, Ethyl 5-(N-(2-(4-(4-fluorobenzoyl)piperazin-1-yl)phenyl)-N-phenethylsulfamoyl)-3-methylbenzofuran-2-carboxylate] yielded an IC50 of 50 to 100 µM.

In turn, `CCOC(=O)c1oc2ccc(S(=O)(=O)N(CCc3ccccc3)c3ccccc3N3CCN(C(=O)c4ccc(NC(=O)OC(C)(C)C)cc4)CC3)cc2c1C` [Example M10-113, Ethyl-(N-(2-(4-(4-((tert-butoxycarbonyl)amino)benzoyl)piperazin-1-yl)phenyl)-N-phenethylsulfamoyl)-3-methylbenzofuran-2-carboxylate] displayed an IC50 of 50 to 100 µM.

As for `CCOC(=O)c1oc2ccc(S(=O)(=O)N(CCc3ccccc3)c3ccccc3N3CCN(C(=O)c4ccc([N+](=O)[O-])cc4)CC3)cc2c1C` [Example M10-114, Ethyl 3-methyl-5-(N-(2-(4-(4-nitrobenzoyl)piperazin-1-yl)phenyl)-N-phenethylsulfamoyl)benzofuran-2-carboxylate], the IC50 lay within 50 to 100 µM.
